{"source": "patent US10258606B2", "about": "“Endothelin single nucleotide polymorphisms and methods of predicting β-adrenergic receptor targeting agent efficacy” (The Regents of the University of Colorado, A Body Corporate, priority 2007, dated 2019)", "key": {"[1]": {"test_system": "subjects with idiopathic dilated cardiomyopathy", "assay": "BEST (Beta-Blocker Evaluation of Survival Trial) DNA substudy: time to event by endothelin gene system genotype, Cox proportional hazards model", "assay_type": "in vivo, human", "details": "for Event/number, first heart failure hospitalization or death: FIG. 1; for E, number of events / HR associated with each copy of allele A, allele dosage Cox model / HR associated with each copy of allele Asn, allele dosage Cox model: bucindolol arm; for HR associated with each copy of allele A, allele dosage Cox model: G/A (IVS-4); for HR associated with each copy of allele Asn, allele dosage Cox model: Lys198Asn", "description": "309 subjects with idiopathic dilated cardiomyopathy were studied from the Beta-Blocker Evaluation of Survival Trial (BEST) (2001). BEST was a multicenter, randomized, prospective trial of patients with NYHA class III or IV heart failure and an ejection fraction <35% comparing mortality in adults treated with placebo or the non-selective β-blocker bucindolol. The BEST DNA bank, initiated in the study's second year, collected samples from 38% of the original participants. The inventors requested samples from idiopathic dilated cases, rather than the entire cohort, to ensure a more homogenous heart failure population. In particular, the inventors sought to avoid studying […] ischemic forms of heart failure where acquired macrovascular changes in arterial stiffness or tone could potentially mask or override inherent microvascular phenotypes mediated by variation in endothelin genes. Written informed consent was obtained from each participant and all DNA was coded to maintain confidentiality. The genotyping project was approved by the BEST DNA Bank Oversight Committee and by the Colorado Multiple Institutional Review Board\nTime to each of two endpoints was examined: all cause death and a combined endpoint comprised of first heart failure hospitalization or all cause death, using the Cox proportional hazards model. Genotype was treated a priori as a continuous variable, consistent with an allele dosage effect. Analyses were conducted using R and SAS. Primary analyses consisted of separate tests of a main genotype effect on time to event for each SNP within each treatment arm: placebo (N=159) and bucindolol (N=150). Secondary analyses, in the combined sample (N=309), consisted of tests of a genotype-treatment pharmacogenetic interaction and of a main genotype effect independent of treatment arm. Secondary analyses, comprised of interaction tests and estimation of within-genotype bucindolol:placebo hazard ratios, were also performed. Ethnicity was not included as a factor in initial Cox models, because of the relatively small sample. However, post-hoc analyses (within ethnic group, and including ethnicity-genotype interactions) were used to explore whether initial results were due to unaccounted for ethnic stratification. Linkage disequilibrium was assessed by taking the R^2 value (squared correlation) of the genotypes (coded as 0, 1 or 2) between two SNPs.\nTo account for the large number of simultaneous tests, adjusted p-values obtained from a multiple-testing permutation procedure are reported (Westfall and Young, 1993). Based on the actual data set, 5000 random data sets were generated by randomly permuting the time to event data relative to the genotype data, separately for patients on placebo and for patients on bucindolol. […] Adjusted p-values for interaction tests are based on 18 tests (2 outcomes×9 SNPs).\nCox model analysis was also used to examine a variety of more complicated models, and to describe the quantify the effects of bucindolol in terms of bucindolol:placebo hazard ratios, within genotype. Kaplan-Meier plots and log-rank tests were also examined. All p-values were based on two-sided tests. The statistical analysis was performed at the Veterans Affairs Cooperative Studies Program DNA Bank Coordinating Center."}, "[2]": {"test_system": "1040 BEST DNA Bank subjects", "details": "bucindolol treated subjects carrying the Arg-389 allele of the beta-1-adrenergic receptor (ADRB); cited from earlier work"}, "[3]": {"details": "combined endpoint, Non-Hispanic Blacks"}, "[4]": {"details": "combined endpoint, Non-Hispanic Whites"}}}
{"smiles": "CC(C)(Cc1c[nH]c2ccccc12)NCC(O)COc1ccccc1C#N", "note": "(centres unmarked) [Bucindolol, bucindolol]", "values": [{"measurement": "Event/number, first heart failure hospitalization or death", "setting": "[1]; IVS-4 G/A common homozygotes", "value": "21/84"}, {"measurement": "Event/number, first heart failure hospitalization or death", "setting": "[1]; IVS-4 G/A heterozygotes", "value": "21/58"}, {"measurement": "Event/number, first heart failure hospitalization or death", "setting": "[1]; IVS-4 G/A rare homozygotes", "value": "7/8"}, {"measurement": "Event/number, first heart failure hospitalization or death", "setting": "[1]; Lys198Asn common homozygotes", "value": "22/87"}, {"measurement": "Event/number, first heart failure hospitalization or death", "setting": "[1]; Lys198Asn heterozygotes", "value": "20/55"}, {"measurement": "Event/number, first heart failure hospitalization or death", "setting": "[1]; Lys198Asn rare homozygotes", "value": "7/8"}, {"measurement": "E, number of events", "setting": "[1]; combined endpoint, G/A (IVS-4) analysis, All (N 150)", "value": 49}, {"measurement": "E, number of events", "setting": "[1]; combined endpoint, G/A (IVS-4) analysis, Non-Hispanic Blacks (N 38)", "value": 16}, {"measurement": "E, number of events", "setting": "[1]; combined endpoint, G/A (IVS-4) analysis, Non-Hispanic Whites (N 100)", "value": 27}, {"measurement": "HR associated with each copy of allele A, allele dosage Cox model", "setting": "[1]; combined endpoint, All", "value": 2.2}, {"measurement": "HR associated with each copy of allele A, allele dosage Cox model", "setting": "[1]; [3]", "value": 1.58}, {"measurement": "HR associated with each copy of allele A, allele dosage Cox model", "setting": "[1]; [4]", "value": 1.9}, {"measurement": "E, number of events", "setting": "[1]; combined endpoint, Lys198Asn analysis, All (N 150)", "value": 49}, {"measurement": "E, number of events", "setting": "[1]; combined endpoint, Lys198Asn analysis, Non-Hispanic Blacks (N 38)", "value": 16}, {"measurement": "E, number of events", "setting": "[1]; combined endpoint, Lys198Asn analysis, Non-Hispanic Whites (N 100)", "value": 27}, {"measurement": "HR associated with each copy of allele Asn, allele dosage Cox model", "setting": "[1]; combined endpoint, All", "value": 2.0}, {"measurement": "HR associated with each copy of allele Asn, allele dosage Cox model", "setting": "[1]; [3]", "value": 1.5}, {"measurement": "HR associated with each copy of allele Asn, allele dosage Cox model", "setting": "[1]; [4]", "value": 1.9}, {"measurement": "Hazard ratio for bucindolol versus placebo", "setting": "[1]; combined endpoint (first heart failure hospitalization or all cause mortality), EDN1 G/A (IVS-4) genotype GG", "value": 0.5}, {"measurement": "Hazard ratio for bucindolol versus placebo", "setting": "[1]; combined endpoint, EDN1 G/A (IVS-4) genotype AA", "value": 3.2}, {"measurement": "Hazard ratio for bucindolol versus placebo", "setting": "[1]; combined endpoint, EDN1 G/A (IVS-4) genotype GA", "value": 1.1}, {"measurement": "Hazard ratio for bucindolol versus placebo", "setting": "[1]; combined endpoint, EDN1 Lys198Asn genotype Asn/Asn", "value": 2.5}, {"measurement": "Hazard ratio for bucindolol versus placebo", "setting": "[1]; combined endpoint, EDN1 Lys198Asn genotype Lys/Asn", "value": 1.1}, {"measurement": "Hazard ratio for bucindolol versus placebo", "setting": "[1]; combined endpoint, EDN1 Lys198Asn genotype Lys/Lys", "value": 0.5}, {"measurement": "apparent effect of bucindolol on combined endpoint", "setting": "[1]; common homozygotes (statistically significant)", "value": "beneficial effect"}, {"measurement": "apparent effect of bucindolol on combined endpoint", "setting": "[1]; heterozygotes", "value": "neutral effect"}, {"measurement": "apparent effect of bucindolol on combined endpoint", "setting": "[1]; rare homozygotes", "value": "harmful effect"}, {"measurement": "combined endpoint hazard rate on bucindolol relative to placebo", "setting": "[1]; the 5.5% of subjects homozygous for the rare complementary haplotype", "value": "almost three times greater"}, {"measurement": "all-cause mortality", "setting": "[2]", "value": "reduced all-cause mortality"}]}
